From article PMC8878452, “A Tale of Toxin Promiscuity: The Versatile Pharmacological Effects of Hcr 1b-2 Sea Anemone Peptide on Voltage-Gated Ion Channels” (Marine Drugs, 2022)
“Also recorded” adds a separate entry of the source. Bridges are numbered along the chain shown (N, C = ends). Where no end group is shown, it is not given here.

How the values were obtained:
rKv1.4 = experiment: TEVC, Kv1.4 in Xenopus oocytes; assay type: cell-based, rat
Description: (§1) For the expression of Kv channels (rKv1.1, rKv1.2, rKv1.3, rKv1.4, rK1.5, rKv1.6, hKv2.1, hKv3.1, rKv4.2, hKv7.1, hKv7.2/7.3, hKv7.4, KQT1 (from the roundworm Caenorhabditis elegans), hKv10.1 (hEAG1), hKv11.1 (hERG1), and Shaker, from Drosophila melanogaster), Nav channels (rNav1.1, rNav1.2, rNav1.3, rNav1.4, hNav1.5, mNav1.6, hNav1.7, hNav1.8, and BgNav (from the cockroach Blattella germanica), as well as the hβ1 and rβ1 subunits, and Cav channels (rCav3.1, hCav3.2, and rCav3.3) in Xenopus oocytes, the linearized plasmids were transcribed using the T7 or SP6 mMESSAGEmMACHINE transcription kit (Ambion, Austin, TX, USA). Mature female animals were purchased from Nasco (Fort Atkinson, WI, USA) and were housed in the Aquatic Facility (KU Leuven) in compliance with the regulations of the European Union (EU) concerning the welfare of laboratory animals as declared in Directive 2010/63/EU. The use of X. laevis oocytes was approved by the Animal Ethics Committee of the KU Leuven, with the license number P186/2019.
(§2) Stage V–VI oocytes were collected from anesthetized female X. laevis frog as previously described, with the frogs anesthetized by placement in a 0.1% tricaine solution (amino benzoic acid ethyl ester; Merck, Kenilworth, NJ, USA). Oocyte microinjection was performed using a microinjector (Drummond Scientifc®, Broomall, PA, USA), with a programmed cRNA injection volume of 4–50 nL, depending on channel subtype. The oocytes were incubated in ND96 solution (96 mM NaCl; 2 mM KCl; 1.8 mM CaCl2; 2 mM MgCl2, and 5 mM HEPES, pH 7.4), supplemented with 50 mg/L of gentamicin sulfate.
(§3) Electrophysiological measurements were performed at room temperature (18–22 °C) using the two-electrode voltage-clamp (TEVC) technique. Data were obtained using a GeneClamp 500 amplifier (Axon Instruments®, Burlingame, CA, USA) and Clampex9 software (Axon Instruments®, USA) was responsible for data acquisition and storage. Glass micropipettes were produced using glass capillaries (borosilicate WPI 1B120-6) and drawn in a WPI (World Precision Instruments®, Sarasota, FL, USA) manual stretcher. The bath and perfusion solutions were either the previously described ND96 (Nav and Kv channels) or calcium-free ND96 supplemented with 10 mM BaCl2 (Cav channels).
(§4) Whole-cell currents of oocytes were recorded 1 to 3 days after RNA injection. The current and voltage electrodes were filled with 3 M KCl, and their resistance was adjusted from 1.0 to 2.5 MΩ. Currents were sampled at 20 kHz (Nav channels) and 10 kHz (Kv and Cav channels) and filtered using a four-pole Bessel low-pass Bessel filter at 1 kHz for sodium and […] for potassium and calcium, except for the hERG ion channel in which the currents were filtered at 1 kHz. Leak subtraction was performed using a P/4 protocol. Kv1.x currents were evoked by 500 ms depolarizations to 0 mV, followed by a 500 ms pulse to −50 mV from a holding potential of −90 mV. Kv2.1, Kv3.1, Kv4.2, Kv7.x, and KQT1 currents were elicited by 700 ms pulses to +20 mV from a holding potential of −90 mV. Current traces of the hERG1 channel were elicited by applying a +40 mV prepulse for 2 s, followed by a step of −120 mV for 2 s. […] The current–voltage relationships were determined by 50 ms step depolarizations between −90 and +65 mV using 5 or 10 mV increments. All electrophysiological data were analyzed following the procedures described by Peigneur et al., 2012 [20].
(§5) All values were expressed as means ± SEM. […]

rKv4.2 = experiment: TEVC, Kv4.2 in Xenopus oocytes; assay type: cell-based, rat; settings: 1 µM, ND96 pH 7.4, 18–22 °C, n ≥ 3
Description: as §1, with “P186/2019. […]” for “P186/2019.”
Whole-cell currents of oocytes were recorded 1 to 3 days after RNA injection. […] The current–voltage relationships were determined by 50 ms step depolarizations between −90 and +65 mV using 5 or 10 mV increments. All electrophysiological data were analyzed following the procedures described by Peigneur et al., 2012 [20].
as §5

BgNav = experiment: TEVC, BgNav in Xenopus oocytes; assay type: cell-based, Blattella germanica
Description: as §1, §2, §3, §4, §5

Sequence: GTPCKCHGYIGVYWFMLAGCPNGYGYNLSCPYFLGICCVKK (disulfide 4-37, 6-30, 20-38 (inferred)) [Hcr 1b-2]
- gating-modifier effect (voltage-current relationship), Kv1.4 (rKv1.4; 1 µM): non-significant gating-modifier effect; also recorded: negligible shift in the midpoint of activation
- Shift in Vhalf activation, Kv1.4 (rKv1.4; 1 µM vs control (ND96)): 2.5 mV
- activity (inhibition of current), Kv1.4 (rKv1.4; 1 µM, 500 ms depolarization to 0 mV from −90 mV, mean ± SEM, n ≥ 3): 46.9 ± 4.3%
- effect on potassium current, Kv1.4 (rKv1.4; 1 µM, TEVC, ND96 pH 7.4, 18–22 °C, n ≥ 3): inhibition
- Vhalf activation, Kv1.4 (rKv1.4; 1 µM, control (ND96) 7.5 ± 0.7, mean ± SEM): 10.0 ± 0.5 mV
- effect on potassium current, Kv4.2 (rKv4.2): inhibition
- Shift in Vhalf activation, BgNav (BgNav; 1 µM vs control (ND96)): 1.9 mV
- Shift in Vhalf inactivation, BgNav (BgNav; 1 µM vs control (ND96)): −5.0 mV
- reduction of peak amplitude (INa) / inhibition, BgNav (BgNav; 1 µM, 100 ms depolarization to 0 mV, mean ± SEM, n ≥ 3): 17.7 ± 1.2%
- Vhalf activation, BgNav (BgNav; 1 µM, control (ND96) −29.0 ± 0.1, mean ± SEM, n ≥ 3): −27.1 ± 0.1 mV
- Vhalf inactivation, BgNav (BgNav; 1 µM, control (ND96) −47.9 ± 0.3, mean ± SEM, n ≥ 3): −52.9 ± 0.3 mV
